The values below are quoted from earlier work in paper PMC11901578, “Polymethoxyflavones and Bone Metabolism” (Nutrients, 2025).

SMILES strings stand for the structures. Where two headings read alike, the source gives them in different places. A value given as a limit tells only on which side of the number the result lay.

Series [1] concerns osteoclast differentiation in co-culture system. The conditions noted are these: LPS +, 30 μM; cited from earlier work.
A further series relates to CIA rats. On the set-up: method as in PMID 31344704. The conditions noted are these: daily oral administration for 14 days; cited from earlier work.
A further series deals with HL-60 cells. On the set-up: method as in PMID 23225422. The conditions noted are these: read-out: IC50, anti-proliferative effect on HL-60 cells; cited from earlier work.
Another series concerns Raw264.7. The conditions noted are these: RANKL +, cited from earlier work; for IC50: read-out: IC50, osteoclast differentiation in Raw264.7 cultures.
In series [2] the test system is rheumatoid synovial fibroblasts (RASFs). Also on record: method as in doi:10.3329/bjp.v10i3.22865. The conditions noted are these: 50 and 100 μM; cited from earlier work.
Series [3] has as its system osteoclast differentiation in co-cultures of osteoblasts and bone marrow cells. As to conditions: cited from earlier work; for IC50: IL-1 +, read-out: IC50, osteoclast differentiation in co-culture system; for inhibitory effect on IL-1-induced osteoclast differentiation relative to nobiletin and tangeretin, respectively: TRAP-positive osteoclasts.
For series [4], the system named is osteoclast differentiation. On the set-up: method as in PMID 22850615. The conditions noted are these: 30 μM; cited from earlier work.
The test system of series [5] is alveolar bone loss in mice. As to conditions: LPS +, cited from earlier work.
For series [6], the system named is osteoclast differentiation. Also on record: method as in PMID 26044862. As to conditions: 20 μM, compared to 20 μM laricitrin and 20 μM myricetin; cited from earlier work.
Series [7] deals with human umbilical vein endothelial cells (HUVECs). Also on record: method as in PMID 22707269. As to conditions: read-out: IC50, anti-proliferative effect on HUVECs; cited from earlier work.
The subject of series [8] is human periodontal ligament cells (HPDLCs). As to conditions: TNF-α, human periodontal ligament cells; cited from earlier work.
The test system of series [9] is bone marrow macrophage (BMM) cultures. The conditions noted are these: 2, 10, and 50 μM; cited from earlier work.
A further series has as its system zebrafish embryos. Also on record: method as in PMID 22707269. As to conditions: 30 μM, cited from earlier work.
Series [10] relates to periodontal ligament cells. On the set-up: method as in PMID 38734708. As to conditions: 2.5, 5, and 10 μM; cited from earlier work.
Series [11] relates to BTB and CNC homology 1 (BACH1). Also on record: method as in PMID 38734708. As to conditions: cited from earlier work.
In series [12] the test system is rats with ligature-induced periodontitis. On the set-up: method as in PMID 38734708. The conditions noted are these: oral 5, 10, and 20 mg/kg/day for 3 weeks; cited from earlier work.
In the next series the test system is DMM-OA mice. The conditions noted are these: DMM-OA mice, oral 50 mg/kg/day for 8 weeks; cited from earlier work.
A further series concerns serum TNF-α levels. Also on record: method as in PMID 18816060. The conditions noted are these: rats, intraperitoneal 100 mg/kg; cited from earlier work.
The test system of series [13] is IL-1β mRNA expression in the hippocampus. On the set-up: method as in PMID 25884208. The conditions noted are these: mice, subcutaneous 100 mg/kg; cited from earlier work.
The subject of series [14] is bone resorption in mouse calvarial or alveolar bone organ cultures. As to conditions: 30 μM, mouse calvarial or alveolar bone organ cultures; cited from earlier work.

The term IC50 denotes the concentration that gives 50% inhibition. On to `COc1ccc(-c2cc(=O)c3c(OC)c(OC)c(OC)c(OC)c3o2)cc1` [Tangeretin, 4′,5,6,7,8-Pentamethoxyflavone], for which the “osteoclast differentiation in co-culture system, inhibited” value in [1] was 94% inhibited [8]. Further, in the series on CIA rats, the “oxidative stress and inflammation” value is “reduced oxidative stress and inflammation”. The IC50 in the series with HL-60 cells was 32 µM; in the series on Raw264.7, 16 µM; in [3] it was 18 µM. For the same compound, in the series on Raw264.7 (30 μM), the “osteoclast differentiation in Raw264.7 cultures, inhibited” value is 71% inhibited [8]. The “proliferation of rheumatoid synovial fibroblasts (RASFs)” value in series [2] is recorded as “significantly inhibits”. Besides, the “suppression of osteoclast differentiation induced by IL-1, LPS, or soluble RANKL (sRANKL)” value in [4] is 70–90%. Besides, the figures for the “alveolar bone loss in mice, restored” value in [5] (30 μg/mouse), in series [5] (100 μg/mouse) and in series [5] (500 μg/mouse) were 0% restored [8], 2% restored [8] and 4% restored [8], respectively.

For `COc1cc(-c2oc3cc(O)cc(O)c3c(=O)c2O)cc(OC)c1O` [Syringetin, 3,4′,5,7-Tetrahydroxy-3′,5′-dimethoxyflavone], the “inhibitory effect on M-CSF-/RANKL-induced osteoclast differentiation” value in series [6] is “strongest inhibitory effect”.

`O=c1cc(-c2ccc(O)cc2)oc2cc(O)c(O)c(O)c12` [Scutellarein]: the IC50 in series [7] was > 100 µM.

For `COc1cc(-c2cc(=O)c3c(O)c(OC)c(O)c(OC)c3o2)ccc1O` [Sudachitin, 4′,5,7-Trihydroxy-3′,6,8-trimethoxyflavone], the “production of MMP-1 and MMP-3” value in series [8] is “reduced the production”. The RANKL-induced osteoclast differentiation entry in series [9] is listed as “dose-dependently suppressed”.

Regarding `COc1ccc(-c2cc(=O)c3c(OC)c(OC)c(OC)cc3o2)cc1` [Scutellarein tetra-methylether], the IC50 in series [7] was > 100 µM.

For `COc1ccc([C@@H]2CC(=O)c3c(O)cc(O)cc3O2)cc1O` [Hesperetin, reference compound], the “anti-angiogenic effect on zebrafish embryos, inhibited” value was ~30% in the series with zebrafish embryos (listed as hesperitin) and 30% inhibited [47] in the series on zebrafish embryos. Also, the IC50 in series [7] was > 100 µM.

Turning to `COc1cc(-c2cc(=O)c3c(OC)c(OC)c(OC)c(OC)c3o2)ccc1O` [4′-Demethylnobiletin, 4′-Hydroxy-3′,5,6,7,8-Pentamethoxyflavone], the IC50 in the series with Raw264.7 is 1 µM; in series [3], 13 µM. Also, the “inhibitory effect on IL-1-induced osteoclast differentiation relative to nobiletin and tangeretin, respectively” value in [3] is “potent inhibitory effects”.

On to `COc1ccc(-c2cc(=O)c3c(OC)c(OC)c(OC)cc3o2)cc1OC` [Sinensetin, 3′,4′,5,6,7-Pentamethoxyflavone], for which the “anti-angiogenic effect on zebrafish embryos, inhibited” value in the series with zebrafish embryos (listed as sinensetin) was “approximately 95%”; in the series with zebrafish embryos, 95% inhibited [47]. For the same compound, the half-inhibitory concentration (IC50) in the series on HL-60 cells is > 400 µM; in series [7] it was 24 µM. In addition, in series [10], the “oxidative stress and inflammation” value is on record as “dose-dependently reduced”. Moreover, the “binding to BACH1” value in series [11] is “directly binds”. For the same compound, the alveolar bone resorption entry in series [12] is listed as “suppressed alveolar bone resorption”. For the same compound, the disease progression entry in the series on DMM-OA mice is “protects against disease progression”.

Consider `COc1c(OC)c(OC)c2c(=O)cc(-c3ccc(O)cc3)oc2c1OC` [4′-Demethyltangeretin, 4′-Hydroxy-5,6,7,8-Tetramethoxyflavone], for which the IC50 with Raw264.7 is 7 µM. Moreover, in series [3], the IC50 is 18 µM; the “inhibitory effect on IL-1-induced osteoclast differentiation relative to nobiletin and tangeretin, respectively” value is on record as “potent inhibitory effects”.

With `COc1ccc(-c2oc3c(OC)c(OC)c(OC)c(OC)c3c(=O)c2OC)cc1OC` [Heptamethoxyflavone, 3,3′,4′,5,6,7,8,-Heptamethoxyflavone], the IC50 in the series on HL-60 cells is 63 µM. Further, the “serum TNF-α levels” value in the series on serum TNF-α levels is “reduced serum TNF-α levels”. The “IL-1β mRNA expression in the hippocampus” value in series [13] is given as “downregulates”. The “inhibition of LPS-induced bone resorption” value in [14] was > 90%.

With `COc1ccc(-c2oc3c(OC)c(OC)c(OC)c(OC)c3c(=O)c2O)cc1OC` [Natsudaidain, 3′,4′,5,6,7,8-Hexamethoxy-3-hydroxyflavone], the IC50 in the series with HL-60 cells was 5 µM.
